Source: EP3807270B1, “NOVEL HETEROARYL HETEROCYCLYL COMPOUNDS FOR THE TREATMENT OF AUTOIMMUNE DISEASE” (F. Hoffmann-La Roche AG, priority 2018, dated 2019)
One block for each molecule: values may come before it.

How the values were obtained:
hERG channel = target: T1, hERG channel (Homo sapiens, UniProt Q12809); assay: hERG channel inhibition assay (patch-clamp, CHO hERG cells); format: cell-based; settings: for IC50 / IC20: CHO hERG cells, whole-cell patch-clamp; for IC20: human, CHO cells stably expressing hERG; for hERG IC20 / TLR8 IC50 / hERG IC20 / TLR7 IC50 / hERG IC20 / TLR9 IC50: safety ratio; for hERG IC20 / TLR7 IC50: TLR7 IC50 of ER compounds from Table 1; for hERG IC20 / TLR9 IC50: TLR9 IC50 of ER compounds from Table 1
T1 construct: expressed in transfected cells; host or cells: CHO (Chinese hamster ovary)
Description: The hERG K^+ channels were cloned in humans and stably expressed in a CHO (Chinese hamster ovary) cell line. CHOhERG cells were used for patch-clamp (voltage-clamp, whole-cell) experiments. Cells were stimulated by a voltage pattern to activate hERG channels and conduct IKhERG currents (rapid delayed outward rectifier potassium current of the hERG channel). After the cells were stabilized for a few minutes, the amplitude and kinetics of IKhERG were recorded at a stimulation frequency of 0.1 Hz (6 bpm). Thereafter, the test compound was added to the preparation at increasing concentrations. For each concentration, an attempt was made to reach a steady-state effect, usually, this was achieved within 3-10 min at which time the next highest concentration was applied. The amplitude and kinetics of IKhERG are recorded in each concentration of the drug which were compared to the control values (taken as 100%). (references: Redfern WS, Carlsson L, Davis AS, Lynch WG, MacKenzie I, Palethorpe S, Siegl PK, Strang I, Sullivan AT, Wallis R, Camm AJ, Hammond TG. 2003; Relationships between preclinical cardiac electrophysiology, clinical QT interval prolongation and torsade de pointes for a broad range of drugs: evidence for a provisional safety margin in drug development. Cardiovasc. Res. 58:32-45, Sanguinetti MC, Tristani-Firouzi M. 2006; hERG potassium channels and cardiac arrhythmia. Nature 440:463-469, Webster R, Leishman D, Walker D. 2002; Towards a drug concentration effect relationship for QT prolongation and torsades de pointes. Curr. Opin. Drug Discov. Devel. 5:116-26).
Table 3. hERG and safety ratio results

hTLR7 = target: T2, hTLR7 (Homo sapiens, UniProt Q9NYK1); assay: HEK293-Blue-hTLR-7 cells assay (SEAP reporter, R848 stimulation); format: cell-based; design: host or cells: HEK293 (HEK-Blue); settings: HEK293-Blue-hTLR7 cells, R848, 20 hrs; read-out: HEK/hTLR7 IC50
T2 sequence (Q9NYK1 27-1049): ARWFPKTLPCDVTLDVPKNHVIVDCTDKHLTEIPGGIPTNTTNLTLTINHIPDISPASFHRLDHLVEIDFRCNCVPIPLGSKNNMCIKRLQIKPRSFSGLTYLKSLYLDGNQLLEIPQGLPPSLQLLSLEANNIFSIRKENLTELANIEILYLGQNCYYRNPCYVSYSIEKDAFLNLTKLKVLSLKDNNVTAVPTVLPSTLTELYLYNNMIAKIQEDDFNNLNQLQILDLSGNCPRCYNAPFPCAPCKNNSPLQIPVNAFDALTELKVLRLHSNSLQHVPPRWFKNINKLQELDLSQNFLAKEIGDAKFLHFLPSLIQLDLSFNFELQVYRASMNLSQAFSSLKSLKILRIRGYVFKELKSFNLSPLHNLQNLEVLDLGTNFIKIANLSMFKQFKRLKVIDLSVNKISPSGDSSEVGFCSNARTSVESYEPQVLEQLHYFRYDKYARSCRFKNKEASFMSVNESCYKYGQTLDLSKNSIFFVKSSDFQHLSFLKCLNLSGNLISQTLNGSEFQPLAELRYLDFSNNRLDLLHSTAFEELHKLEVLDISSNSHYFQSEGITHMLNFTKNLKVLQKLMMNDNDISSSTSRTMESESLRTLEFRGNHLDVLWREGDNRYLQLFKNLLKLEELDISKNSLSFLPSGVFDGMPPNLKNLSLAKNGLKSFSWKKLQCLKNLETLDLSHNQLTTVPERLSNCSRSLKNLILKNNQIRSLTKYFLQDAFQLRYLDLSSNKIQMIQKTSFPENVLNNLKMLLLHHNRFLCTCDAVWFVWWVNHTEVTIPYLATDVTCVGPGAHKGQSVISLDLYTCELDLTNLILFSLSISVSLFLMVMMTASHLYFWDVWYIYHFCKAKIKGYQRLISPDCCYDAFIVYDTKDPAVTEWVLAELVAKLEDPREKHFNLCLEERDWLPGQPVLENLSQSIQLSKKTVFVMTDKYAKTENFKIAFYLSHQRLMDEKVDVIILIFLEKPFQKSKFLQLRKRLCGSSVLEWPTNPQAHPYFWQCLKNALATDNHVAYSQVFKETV
Procedure, shortened: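 HEK293-Blue cells stably expressing human TLR7 with an NF-κB/AP-1-driven SEAP reporter were treated with serially diluted compound (1% DMSO final) plus R848 for 20 h at 37 °C. Supernatant SEAP activity was measured with QUANTI-Blue substrate after 2 h at 37 °C, with absorbance read at 620-655 nm.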

T1 sequence (Q12809 whole entry): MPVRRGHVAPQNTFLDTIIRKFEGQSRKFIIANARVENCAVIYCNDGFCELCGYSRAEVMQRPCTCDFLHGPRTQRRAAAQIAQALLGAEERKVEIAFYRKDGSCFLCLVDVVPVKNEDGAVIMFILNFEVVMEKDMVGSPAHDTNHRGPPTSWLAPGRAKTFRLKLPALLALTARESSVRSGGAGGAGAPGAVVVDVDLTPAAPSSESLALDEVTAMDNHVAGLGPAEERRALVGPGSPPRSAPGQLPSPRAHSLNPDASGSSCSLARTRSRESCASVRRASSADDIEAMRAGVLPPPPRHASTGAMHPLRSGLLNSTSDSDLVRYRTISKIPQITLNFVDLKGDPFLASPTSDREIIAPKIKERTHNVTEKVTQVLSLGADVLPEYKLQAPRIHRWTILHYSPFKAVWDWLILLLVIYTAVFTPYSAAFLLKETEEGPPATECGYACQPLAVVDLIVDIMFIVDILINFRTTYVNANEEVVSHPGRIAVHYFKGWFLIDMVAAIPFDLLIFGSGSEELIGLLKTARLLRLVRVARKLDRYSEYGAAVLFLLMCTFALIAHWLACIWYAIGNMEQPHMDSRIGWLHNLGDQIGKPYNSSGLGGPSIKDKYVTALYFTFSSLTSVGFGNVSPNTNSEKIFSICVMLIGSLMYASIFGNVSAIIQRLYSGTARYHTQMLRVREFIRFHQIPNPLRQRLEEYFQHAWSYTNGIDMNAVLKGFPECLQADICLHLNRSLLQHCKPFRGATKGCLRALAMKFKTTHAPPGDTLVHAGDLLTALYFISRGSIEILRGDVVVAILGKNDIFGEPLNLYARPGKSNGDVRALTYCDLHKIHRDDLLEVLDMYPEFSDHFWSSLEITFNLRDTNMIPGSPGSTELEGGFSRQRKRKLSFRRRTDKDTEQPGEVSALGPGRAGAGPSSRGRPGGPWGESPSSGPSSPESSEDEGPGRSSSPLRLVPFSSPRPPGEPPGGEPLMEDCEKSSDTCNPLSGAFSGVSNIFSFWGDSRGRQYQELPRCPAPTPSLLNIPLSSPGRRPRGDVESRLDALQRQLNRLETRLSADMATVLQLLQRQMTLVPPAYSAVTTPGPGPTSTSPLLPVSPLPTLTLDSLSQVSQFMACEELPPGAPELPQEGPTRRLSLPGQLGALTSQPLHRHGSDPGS

SMILES: C[C@@H]1CN(c2ccc(C#N)c3ncccc23)C[C@H](CN2CCN(c3cnc4c(c3)CNCC4)CC2)O1 [Example 21, 5-[(2R,6S)-2-methyl-6-[[4-(5,6,7,8-tetrahydro-1,6-naphthyridin-3-yl)piperazin-1-yl]methyl]morpholin-4-yl]quinoline-8-carbonitrile]
IC50 (hERG channel): > 20 µM
IC20 (hERG channel): > 10 µM
hERG IC20 / TLR8 IC50 (hERG channel): >1098.9
hERG IC20 / TLR7 IC50 (hERG channel): >900.9
hERG IC20 / TLR9 IC50 (hERG channel): >193.8
IC50 (hTLR7): 0.011 µM

SMILES: C[C@@H]1CN(c2ccc(C#N)c3ncccc23)C[C@H](CN2CCN(c3cc4c(cn3)CCN[C@@H]4C)CC2)O1 (single isomer, unassigned) [Example 74]
IC50 (hERG channel): > 20 µM
IC20 (hERG channel): > 10 µM
hERG IC20 / TLR8 IC50 (hERG channel): >2857.1
hERG IC20 / TLR7 IC50 (hERG channel): >1470.6
hERG IC20 / TLR9 IC50 (hERG channel): >112.1
IC50 (hTLR7): 0.007 µM

SMILES: C[C@@H]1Cc2cnc(N3CCN(C[C@H]4CN(c5ccc(C#N)c6ncccc56)C[C@@H](C)O4)CC3)cc2CN1 (single isomer, unassigned) [Example 77]
IC50 (hERG channel): > 20 µM
IC20 (hERG channel): > 10 µM
hERG IC20 / TLR8 IC50 (hERG channel): >1515.2
hERG IC20 / TLR7 IC50 (hERG channel): >885.0
hERG IC20 / TLR9 IC50 (hERG channel): >86.9
IC50 (hTLR7): 0.011 µM

SMILES: C[C@@H]1CN(c2ccc(C#N)c3ncccc23)C[C@H](CN2CCN(c3ccc4c(c3)C(O)CNC4)CC2)O1 (stereo partly drawn) [Example 22, 5-[(2S,6R)-2-[[4-(4-hydroxy-1,2,3,4-tetrahydroisoquinolin-6-yl)piperazin-1-yl]methyl]-6-methyl-morpholin-4-yl]quinoline-8-carbonitrile]
IC50 (hERG channel): > 20 µM
IC20 (hERG channel): > 10 µM
hERG IC20 / TLR8 IC50 (hERG channel): >520.8
hERG IC20 / TLR7 IC50 (hERG channel): >259.7
hERG IC20 / TLR9 IC50 (hERG channel): >222.7
IC50 (hTLR7): 0.039 µM

The remaining molecules from weak to strong by IC50 (hTLR7), led by results:

IC50 (hTLR7): 0.059 µM
SMILES: C[C@@H]1CN(c2ccc(C#N)c3ncccc23)C[C@H](CN2CCN(c3cnc4c(c3)CCNC4)CC2)O1 [Example 23, 5-[(2R,6S)-2-methyl-6-[[4-(5,6,7,8-tetrahydro-1,7-naphthyridin-3-yl)piperazin-1-yl]methyl]morpholin-4-yl]quinoline-8-carbonitrile]
IC50 (hERG channel): > 20 µM
IC20 (hERG channel): > 10 µM
hERG IC20 / TLR8 IC50 (hERG channel): >934.6
hERG IC20 / TLR7 IC50 (hERG channel): >170.6
hERG IC20 / TLR9 IC50 (hERG channel): >170.1

IC50 (hTLR7): 0.031 µM
SMILES: C[C@@H]1CN(c2ccc(C#N)c3ncccc23)C[C@H](CN2CCN(c3ccc4c(c3)CCNC4)CC2)O1 [Example 5, 5-[(2R,6S)-2-methyl-6-[[4-(1,2,3,4-tetrahydroisoquinolin-6-yl)piperazin-1-yl]methyl]morpholin-4-yl]quinoline-8-carbonitrile]
IC50 (hERG channel): > 20 µM
IC20 (hERG channel): > 10 µM
hERG IC20 / TLR8 IC50 (hERG channel): >497.5
hERG IC20 / TLR7 IC50 (hERG channel): >320.5
hERG IC20 / TLR9 IC50 (hERG channel): >156.0

IC50 (hTLR7): 0.004 µM
SMILES: C[C@@H]1CN(c2ccc(C#N)c3ncccc23)C[C@H](CN2CC3(C2)CN(c2cnc4c(n2)CCNC4)CCO3)O1 [Example 50, 5-[(2R,6S)-2-methyl-6-[[8-(5,6,7,8-tetrahydropyrido[3,4-b]pyrazin-2-yl)-5-oxa-2,8-diazaspiro [3.5]nonan-2-yl]methyl]morpholin-4-yl] quinoline-8-carbonitrile]
IC50 (hERG channel): > 20 µM
IC20 (hERG channel): > 10 µM
hERG IC20 / TLR8 IC50 (hERG channel): >3125.0
hERG IC20 / TLR7 IC50 (hERG channel): >2702.7
hERG IC20 / TLR9 IC50 (hERG channel): > 144.9
